Assay results as given in ChEMBL document CHEMBL1201862, “PubChem BioAssay data set” (2004).
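In this assay, cells in 96-well plates receive the compound at five concentrations for 48 hours. Endpoints are linearly interpolated between the surrounding concentrations. GI50 = concentration required for 50% inhibition of growth.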 Calls of active or inactive are those of the source. Cut-off read from the data, not from the text of the source: active = GI50 up to about 1.1 µM and inactive = higher. Where a SMILES comes first, the peptide text is derived from it. [ ]: non-standard residue; d: D form. Aoe = N[C@@H](CCCCCC(=O)[C@@H]1CO1)C(=O)O

Legend:
Assay in all cases: DTP human tumour cell line panel, 48 h
ACHN = system: ACHN
DMS-114 = system: DMS-114
IGROV-1 = system: IGROV-1
KM12 = system: KM12
M14 = system: M14
NCI-H460 = system: NCI-H460
NCI-H522 = system: NCI-H522
OVCAR-3 = system: OVCAR-3
OVCAR-4 = system: OVCAR-4
SF-295 = system: SF-295
SN12C = system: SN12C
U-251 = system: U-251
CAKI-1 = system: CAKI-1
SK-MEL-5 = system: SK-MEL-5
BT-549 = system: BT-549
DU-145 = system: DU-145
Hs-578T = system: Hs-578T
MCF7 = system: MCF7
MDA-MB-435 = system: MDA-MB-435
PC-3 = system: PC-3

SMILES | GI50 (ACHN) | GI50 (DMS-114) | GI50 (IGROV-1) | GI50 (KM12) | GI50 (M14) | GI50 (NCI-H460) | GI50 (NCI-H522) | GI50 (OVCAR-3) | GI50 (OVCAR-4) | GI50 (SF-295) | GI50 (SN12C) | GI50 (U-251) | GI50 (CAKI-1) | GI50 (SK-MEL-5) | GI50 (BT-549) | GI50 (DU-145) | GI50 (Hs-578T) | GI50 (MCF7) | GI50 (MDA-MB-435) | GI50 (PC-3)
Cc1ncc(CCl)c2c1OC(C)(C)OC2 | 21.3 µM (inactive) | > 100 µM (inactive) | > 100 µM (inactive) | 37.5 µM (inactive) | 36.4 µM (inactive) | > 100 µM (inactive) | 17 µM (inactive) | 26.1 µM (inactive) | 15.1 µM (inactive) | > 100 µM (inactive) | 35.6 µM (inactive) | 14.4 µM (inactive) | – | – | – | – | – | – | – | –
COc1ccc(C(=O)c2c(C(C(=O)c3ccc(OC)cc3)C(=O)c3ccc(OC)cc3)n(C(=O)c3ccc(OC)cc3)c3ccccc23)cc1 | > 100 µM (inactive) | > 100 µM (inactive) | > 100 µM (inactive) | > 100 µM (inactive) | > 100 µM (inactive) | > 100 µM (inactive) | > 100 µM (inactive) | > 100 µM (inactive) | > 100 µM (inactive) | > 100 µM (inactive) | > 100 µM (inactive) | > 100 µM (inactive) | > 100 µM (inactive) | > 100 µM (inactive) | – | – | – | – | – | –
CN(C)CCCN1c2ccccc2CCc2cccc([N+](=O)[O-])c21 | 22.5 µM (inactive) | – | 16.9 µM (inactive) | 17.1 µM (inactive) | 15.7 µM (inactive) | 18.2 µM (inactive) | 15.8 µM (inactive) | 16.3 µM (inactive) | 18 µM (inactive) | 16.5 µM (inactive) | 21.3 µM (inactive) | 18.2 µM (inactive) | 20 µM (inactive) | 16.4 µM (inactive) | 25.9 µM (inactive) | 17.4 µM (inactive) | 23.3 µM (inactive) | 16.8 µM (inactive) | 16.7 µM (inactive) | 19.8 µM (inactive)
CC(C)=CCC/C(C)=C/Cc1c(O)ccc2c1[nH]c1cc(O)c(C)cc12 | 8.85 µM (inactive) | 13.8 µM (inactive) | 14.7 µM (inactive) | 10.6 µM (inactive) | 11.8 µM (inactive) | 11.9 µM (inactive) | 7.96 µM (inactive) | 5.73 µM (inactive) | 3.78 µM (inactive) | – | 14.6 µM (inactive) | 10 µM (inactive) | – | 16.6 µM (inactive) | – | – | – | – | – | –
CN(C)CCN(c1ccccn1)c1ccccn1 | > 100 µM (inactive) | – | > 100 µM (inactive) | > 100 µM (inactive) | > 100 µM (inactive) | > 100 µM (inactive) | > 100 µM (inactive) | > 100 µM (inactive) | > 100 µM (inactive) | > 100 µM (inactive) | > 100 µM (inactive) | > 100 µM (inactive) | > 100 µM (inactive) | > 100 µM (inactive) | > 100 µM (inactive) | > 100 µM (inactive) | > 100 µM (inactive) | > 100 µM (inactive) | > 100 µM (inactive) | > 100 µM (inactive)
c1ccc(CNCCCCNCCCNCc2ccccc2)cc1 | 15.7 µM (inactive) | – | 13.1 µM (inactive) | 20 µM (inactive) | 29.1 µM (inactive) | 15.3 µM (inactive) | 15.2 µM (inactive) | 20 µM (inactive) | 17.8 µM (inactive) | > 100 µM (inactive) | 19.8 µM (inactive) | 17.8 µM (inactive) | 13.6 µM (inactive) | 17.6 µM (inactive) | 16.3 µM (inactive) | 23.6 µM (inactive) | 14 µM (inactive) | > 100 µM (inactive) | 16.4 µM (inactive) | 13.6 µM (inactive)
COc1cc(O)c(C(=O)C2Cc3ccccc32)c(OC)c1 (configuration not stated) | 50.7 µM (inactive) | 27.4 µM (inactive) | > 100 µM (inactive) | 32.4 µM (inactive) | 33.9 µM (inactive) | 61.8 µM (inactive) | 32.7 µM (inactive) | – | 64.4 µM (inactive) | 86.1 µM (inactive) | 46.5 µM (inactive) | 64.3 µM (inactive) | 25.6 µM (inactive) | 29.6 µM (inactive) | – | – | – | – | – | –
CC/C=C/c1cc2c(c3[nH]ccc13)[C@@H](C)CC2C.CC/C=C/c1cc2cc[nH]c2c2c1C(C)C[C@@H]2C.CCc1cc2c(c3[nH]ccc13)[C@@H](C)CC2C (some centres not stated) | 16.2 µM (inactive) | 16.8 µM (inactive) | – | 16.8 µM (inactive) | 13.5 µM (inactive) | 15.2 µM (inactive) | 15.6 µM (inactive) | – | 15.4 µM (inactive) | 16.6 µM (inactive) | 15.1 µM (inactive) | 18 µM (inactive) | 15.1 µM (inactive) | – | – | – | – | – | – | –
O=C1OC(CC(=O)c2ccc(Cl)c(Cl)c2)C(Cl)=C1Cl (configuration not stated) | > 100 µM (inactive) | 52.6 µM (inactive) | > 100 µM (inactive) | > 100 µM (inactive) | > 100 µM (inactive) | > 100 µM (inactive) | 22.5 µM (inactive) | > 100 µM (inactive) | > 100 µM (inactive) | > 100 µM (inactive) | > 100 µM (inactive) | > 100 µM (inactive) | > 100 µM (inactive) | > 100 µM (inactive) | – | – | – | – | – | –
O=c1[nH]c(=O)n(C2OC(CO)C(O)C2O)cc1/N=N/NCc1ccccc1 (configuration not stated) | > 100 µM (inactive) | > 66.5 µM (inactive) | > 100 µM (inactive) | > 100 µM (inactive) | > 100 µM (inactive) | > 69.2 µM (inactive) | > 100 µM (inactive) | > 100 µM (inactive) | > 100 µM (inactive) | > 100 µM (inactive) | > 100 µM (inactive) | > 100 µM (inactive) | > 100 µM (inactive) | > 100 µM (inactive) | – | – | – | – | – | –
CC(=O)OC1COC(Nc2nc(N)n(C)c(=O)c2N=O)C(OC(C)=O)C1OC(C)=O (configuration not stated) | > 10 µM (inactive) | – | > 10 µM (inactive) | > 10 µM (inactive) | > 10 µM (inactive) | > 10 µM (inactive) | > 10 µM (inactive) | > 10 µM (inactive) | > 10 µM (inactive) | > 10 µM (inactive) | > 10 µM (inactive) | > 10 µM (inactive) | > 10 µM (inactive) | > 10 µM (inactive) | > 10 µM (inactive) | > 10 µM (inactive) | > 10 µM (inactive) | > 10 µM (inactive) | > 10 µM (inactive) | > 10 µM (inactive)
O=C1c2cc(I)ccc2N2CCN=C2N1Cc1ccccc1 | 51.2 µM (inactive) | – | > 100 µM (inactive) | > 100 µM (inactive) | > 100 µM (inactive) | > 100 µM (inactive) | > 100 µM (inactive) | > 100 µM (inactive) | > 100 µM (inactive) | 73.1 µM (inactive) | > 100 µM (inactive) | 49.5 µM (inactive) | > 100 µM (inactive) | > 100 µM (inactive) | 49.9 µM (inactive) | > 100 µM (inactive) | 72.1 µM (inactive) | > 100 µM (inactive) | > 100 µM (inactive) | > 100 µM (inactive)
O=C(CSc1nc(O)nc2[nH]cnc12)Nc1ccccc1 | > 100 µM (inactive) | – | > 100 µM (inactive) | > 100 µM (inactive) | > 100 µM (inactive) | > 100 µM (inactive) | 86.9 µM (inactive) | > 100 µM (inactive) | > 100 µM (inactive) | 86.9 µM (inactive) | 48.5 µM (inactive) | 33.1 µM (inactive) | > 100 µM (inactive) | 46.7 µM (inactive) | 46.9 µM (inactive) | > 100 µM (inactive) | 75 µM (inactive) | 44.6 µM (inactive) | 53.1 µM (inactive) | 36.6 µM (inactive)
CCOc1ccc(OCC(=O)O)c2c1CCCC2=O | > 100 µM (inactive) | > 100 µM (inactive) | > 100 µM (inactive) | > 100 µM (inactive) | > 100 µM (inactive) | > 100 µM (inactive) | > 100 µM (inactive) | > 100 µM (inactive) | > 100 µM (inactive) | > 100 µM (inactive) | > 100 µM (inactive) | > 100 µM (inactive) | – | > 100 µM (inactive) | – | – | – | – | – | –
COc1ccc2cc3n(c(=O)c2c1)CCc1c-3cc(OC)c(OC)c1OC | > 100 µM (inactive) | > 100 µM (inactive) | > 100 µM (inactive) | – | > 100 µM (inactive) | – | > 100 µM (inactive) | > 100 µM (inactive) | > 100 µM (inactive) | > 100 µM (inactive) | > 100 µM (inactive) | 50.6 µM (inactive) | > 100 µM (inactive) | > 100 µM (inactive) | – | – | – | – | – | –
c1cc(C[S+]2CCCC2)ccc1C[S+]1CCCC1 | > 100 µM (inactive) | – | > 100 µM (inactive) | > 100 µM (inactive) | > 100 µM (inactive) | > 100 µM (inactive) | > 100 µM (inactive) | > 100 µM (inactive) | > 100 µM (inactive) | > 100 µM (inactive) | > 100 µM (inactive) | > 100 µM (inactive) | > 100 µM (inactive) | > 100 µM (inactive) | > 100 µM (inactive) | > 100 µM (inactive) | > 100 µM (inactive) | > 100 µM (inactive) | > 100 µM (inactive) | > 100 µM (inactive)
O=C1N[C@@H](Cc2ccccc2)C(=O)N2CCC[C@@H]2C(=O)N[C@@H](CCCCCC(=O)[C@@H]2CO2)C(=O)N[C@H]1Cc1ccccc1 [TRAPOXIN B] (cyclo(FF[dP][Aoe])) | 0.00124 µM (active) | – | 0.019 µM (active) | 0.000735 µM (active) | 0.000597 µM (active) | 0.011 µM (active) | 0.00052 µM (active) | 0.00122 µM (active) | 0.221 µM (active) | 0.0145 µM (active) | 0.0104 µM (active) | 0.0027 µM (active) | 0.00157 µM (active) | 0.000497 µM (active) | 0.389 µM (active) | 0.00136 µM (active) | 0.000685 µM (active) | 0.000553 µM (active) | 0.000546 µM (active) | 0.00209 µM (active)
